The values that follow come from patent US20160222014A1, “COMPOUNDS FOR REGULATING FAK AND/OR SRC PATHWAYS” (ASANA BIOSCIENCES, LLC, priority 2013, published 2016).

Bounds are passed on as bounds.

The target in one assay is T1, AURKB (Aurora B) enzyme (Homo sapiens, UniProt Q96GD4).
T1 construct: purchased Invitrogen PVR 130
The experiment in a line: Aurora B HTRF assay. Type of assay: biochemical. The note with it: read-out: AuroraB IC50. The procedure, abridged:
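HTRF kinase assay with 5 nM Aurora B and 50 nM ULight-PLK (Ser137) peptide, with a reagent at 30 μM final; 1 h at rt. Reaction stopped with EDTA, and phospho-peptide detected with 2 nM Eu-anti-P-PLK(Ser137) antibody after 1 h at rt, read as HTRF.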

The target in another assay is T2, recombinant human FAK1 (Homo sapiens, UniProt Q05397).
T2 construct: fused on or other part: N-terminal 6xHis tag
The assay is described as follows: FAK1 HTRF assay. Type of assay: biochemical. The procedure, abridged: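 His-tagged human FAK1 (residues 692–end, Sf9-expressed), 10 nM final, with 0.5 μM biotinylated gastrin-precursor Tyr87 peptide and a 10 μM final reagent in pH 7.4 buffer, 45 min at rt. Detection used Eu anti-pTyr antibody plus SA-APC (665/620 nm). Compounds top concentration 10 μM; IC50 from % inhibition.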

T2 sequence (Q05397 422-680 limits assumed): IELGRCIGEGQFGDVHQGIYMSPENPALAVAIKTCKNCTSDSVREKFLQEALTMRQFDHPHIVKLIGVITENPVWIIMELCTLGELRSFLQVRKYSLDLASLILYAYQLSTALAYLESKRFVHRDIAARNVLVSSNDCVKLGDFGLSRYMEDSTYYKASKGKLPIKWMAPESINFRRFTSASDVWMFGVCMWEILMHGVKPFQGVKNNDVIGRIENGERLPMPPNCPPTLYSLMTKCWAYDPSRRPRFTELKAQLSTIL
T1 sequence (Q96GD4 whole entry): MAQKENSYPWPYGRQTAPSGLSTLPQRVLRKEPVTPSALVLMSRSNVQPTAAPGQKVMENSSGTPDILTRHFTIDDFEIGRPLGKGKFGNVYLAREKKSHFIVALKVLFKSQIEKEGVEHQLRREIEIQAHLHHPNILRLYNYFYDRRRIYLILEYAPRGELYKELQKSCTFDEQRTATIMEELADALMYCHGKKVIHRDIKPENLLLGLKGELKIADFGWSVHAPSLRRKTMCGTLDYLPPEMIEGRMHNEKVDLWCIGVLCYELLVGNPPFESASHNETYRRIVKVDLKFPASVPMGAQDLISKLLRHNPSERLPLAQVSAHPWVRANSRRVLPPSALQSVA

On to `Cc1cc(Nc2ncc3cnn(S(=O)(=O)c4cccc5cccnc45)c3n2)ccc1N1CCNCC1` [Example 332], for which the IC50 at AURKB (Aurora B) enzyme and on recombinant human FAK1 was below 20 nM in each case. In the case of `CN(c1ncccc1Cn1ncc2cnc(Nc3ccc4[nH]c(=O)[nH]c4c3)cc21)S(C)(=O)=O` [Example 142], the IC50 on recombinant human FAK1 is below 20 nM. In the case of `O=S(=O)(c1cccc2nsnc12)n1ccc2cnc(Nc3ccc(N4CCNCC4)cc3)nc21` [Example 253], the IC50 on AURKB (Aurora B) enzyme and on recombinant human FAK1 was below 20 nM in each case. With `O=C1CCc2cc(Nc3ncc4ccn(S(=O)(=O)c5cccc6cccnc56)c4n3)ccc2N1` [Example 169], the IC50 at AURKB (Aurora B) enzyme and at recombinant human FAK1 was below 20 nM in each case. `CN(c1ncccc1Cn1ccc2cnc(Nc3ccc(N4CCCC4CO)cc3)nc21)S(C)(=O)=O` (stereo not shown) [Example 536]: at recombinant human FAK1, the IC50 was below 20 nM. Consider `CN(c1ncccc1Cn1ccc2cnc(Nc3ccc(NCCO)cc3)nc21)S(C)(=O)=O` [Example 201], for which the IC50 at AURKB (Aurora B) enzyme is below 20 nM.

As for `CC(=O)Nc1cccc(Nc2cc3c(cn2)cnn3Cc2ccccc2OC(F)F)c1` [Example 64], on AURKB (Aurora B) enzyme, the IC50 is above 1000 nM. Turning to `O=C1CCc2cc(Nc3ncc4ccn(Cc5cccnc5N5CCCS5(=O)=O)c4n3)ccc2N1` [Example 216], the IC50 on AURKB (Aurora B) enzyme and at recombinant human FAK1 was below 20 nM throughout. With `FC(F)Oc1ccccc1Cn1ccc2cnc(Nc3ccc4ncsc4c3)nc21` [Example 36], the IC50 on AURKB (Aurora B) enzyme was above 1000 nM. For `Cn1cc(Nc2ncc3ccn(S(=O)(=O)c4cccc5cccnc45)c3n2)cn1` [Example 318], the IC50 on AURKB (Aurora B) enzyme and at recombinant human FAK1 was below 20 nM in each case. For `COc1ccccc1S(=O)(=O)n1ncc2cnc(Nc3ccc(N4CCNCC4)cc3)nc21` [Example 335], the IC50 at AURKB (Aurora B) enzyme was below 20 nM. In the case of `COc1cc(N2CCNCC2)ccc1Nc1cc2c(ccn2S(=O)(=O)c2cccc3cccnc23)cn1` [Example 330, N-(2-Methoxy-4-(piperazin-1-yl)phenyl)-1-(quinolin-8-ylsulfonyl)-1H-pyrrolo[3,2-c]pyridin-6-amine], the IC50 at AURKB (Aurora B) enzyme and at recombinant human FAK1 was below 20 nM in each case. Consider `FC(F)Oc1ccccc1Cn1ncc2cnc(Nc3ccc4ncsc4c3)cc21` [Example 82], for which, at AURKB (Aurora B) enzyme, the IC50 was above 1000 nM.
